This experiment concerns ornithine decarboxylase (ODC). As to the kind of experiment: Inhibition of TPA induction of ornithine decarboxylase (ODC assay). In kind it is biochemical. An excerpt: A classic measure of retinoic acid activity involves measuring the effects of retinoic acid on ornithine decarboxylase. The original work on the correlation between retinoic acid and decrease in cell proliferation was done by Verma & Boutwell, Cancer Research, 1977, 37,2196-2201. That reference discloses that ornithine decarboxylase (ODC) activity increased precedent to polyamine biosynthesis. It has been established elsewhere that increases in polyamine synthesis can be correlated or associated with cellular proliferation. Thus, if ODC activity could be inhibited, cell hyperproliferation could be modulated. Although all cases for ODC activity increases are unknown, it is known that 12-O-tetradecanoylphorbol-13-acetate (TPA) induces ODC activity. Retinoic acid inhibits this induction of ODC activity by TPA. […] Activity of exemplary compounds of the present invention in the above-described ODC assay is disclosed in Table 1 which provides the IC60 concentration for the respective exemplary compound. ("IC60 " is that concentration of the test compound which causes 60% inhibition in the ODC assay. By analogy, "IC80, for example, is that concentration of the test compound which causes 80% inhibition in the ODC assay.)

As to `CCOC(=O)c1ccc(N=Nc2ccc3c(c2)/C(=N/OC)CCC3(C)C)cc1` [Compound D3, Ethyl 4-[(8(7H)-anti-(O-methyl oxime)-5,5-dimethyl-5,6-dihydronaphthalen-2-yl)azo]benzoate], the IC60 (concentration causing 60% inhibition in the ODC assay (TPA-induced)) was found to be 8.4 nmols.
As to `CC1(C)CC=C(c2cccs2)c2ccc(C(=O)C=Cc3ccc(C(=O)O)cc3)cc21` [Compound D34, 4-[3-oxo-3-(7,8-dihydro-5-(2-thienyl)-8,8-dimethyl-2-naphthalenyl)-1-propenyl]-benzoic acid], the IC80 (concentration causing 80% inhibition in the ODC assay (TPA-induced), marked (IC80) in the IC60 column) came to 4.3 nmols.

The values are drawn from patent US5763635A, “Tetrahydronaphthalene derivatives substituted in the 8 position with alkyhidene groups having retinoid and/or retinoid antagonist-like biological activity” (ALLERGAN, priority 1996, dated 1998).
